# How the values were obtained:
# CYP2C9 = molecular target: T1, CYP2C9 (Homo sapiens, UniProt P11712); assay: Inhibition of human liver microsomal cytochrome P450 isoenzymes; type: in vitro ADME; details: human liver microsomes
# T1 construct: from tissue; host or cells: human liver microsomes
# Description: (§1) Experimental objective: to determine the inhibitory effect of the test compound on the activity of human liver microsomal cytochrome P450 isoenzymes (CYP1A2, CYP2C9, CYP2C19, CYP2D6 and CYP3A4). Experimental procedures: first, the test compound (10 mM) was diluted in gradient to prepare working solutions (100× final concentration) at concentrations of: 5, 1.5, 0.5, 0.15, 0.05, 0.015, and 0.005 mM, and working solutions of positive inhibitors for P450 isoenzymes (CYP1A2, CYP2C9, CYP2C19, CYP2D6, and CYP3A4) and the specific substrate mixtures thereof (5 in 1) were prepared simultaneously; human liver microsomes frozen in a−80° C. refrigerator were thawed on ice, and after all thawed, the human liver microsomes were diluted with PB to prepare a working solution at a specific concentration (0.253 mg/mL); 20 μL of the substrate mixture (20 μL of PB was added into the blank well) and 158 μL of the working solution of human liver microsomes were added into the reaction plate which was then placed on ice for use; then 2 μL of the test compound at each concentration (N=1) and a specific inhibitor (N=2) were added into the corresponding well, and the group without the inhibitor (test compound or the positive inhibitor) was added with a corresponding organic solvent as a control sample (the test compound control sample was 1:1 DMSO:MeOH; the positive control sample was 1:9 DMSO:MeOH); after pre-incubation under a 37° C. water bath for 10 min, 20 μL of a coenzyme factor (NADPH) solution was added into the reaction plate and incubated under a 37° C. water bath for 10 min, 400 μL of a cold acetonitrile solution (the internal standard was 200 ng/mL Tolbutamide and Labetalol) was added to terminate the reaction, and the reaction plate was placed on a shaker and shaken for 10 min; after centrifugation at 4,000 rpm for 20 min, 200 μL of the supernatant was collected and added to 100 μL of water to dilute the sample, and, finally, the plate was sealed, oscillated shaken evenly, and subjected to LC/MS/MS detection.
# CYP2C19 = molecular target: T2, CYP2C19 (Homo sapiens, UniProt P33261); assay: as above; type: in vitro ADME; details: human liver microsomes
# T2 construct: from tissue; host or cells: human liver microsomes
# Description: as §1
# CYP3A4 = molecular target: T3, CYP3A4 (Homo sapiens, UniProt P08684); assay: as above; type: in vitro ADME; details: human liver microsomes
# T3 construct: from tissue; host or cells: human liver microsomes
# Description: as §1
# CYP2D6 = molecular target: T4, CYP2D6 (Homo sapiens, UniProt P10635); assay: as above; type: in vitro ADME; details: human liver microsomes
# T4 construct: from tissue; host or cells: human liver microsomes
# Description: as §1
# CYP1A2 = molecular target: T5, CYP1A2 (Homo sapiens, UniProt P05177); assay: as above; type: in vitro ADME; details: human liver microsomes
# T5 construct: from tissue; host or cells: human liver microsomes
# T5 sequence (P05177 1-516): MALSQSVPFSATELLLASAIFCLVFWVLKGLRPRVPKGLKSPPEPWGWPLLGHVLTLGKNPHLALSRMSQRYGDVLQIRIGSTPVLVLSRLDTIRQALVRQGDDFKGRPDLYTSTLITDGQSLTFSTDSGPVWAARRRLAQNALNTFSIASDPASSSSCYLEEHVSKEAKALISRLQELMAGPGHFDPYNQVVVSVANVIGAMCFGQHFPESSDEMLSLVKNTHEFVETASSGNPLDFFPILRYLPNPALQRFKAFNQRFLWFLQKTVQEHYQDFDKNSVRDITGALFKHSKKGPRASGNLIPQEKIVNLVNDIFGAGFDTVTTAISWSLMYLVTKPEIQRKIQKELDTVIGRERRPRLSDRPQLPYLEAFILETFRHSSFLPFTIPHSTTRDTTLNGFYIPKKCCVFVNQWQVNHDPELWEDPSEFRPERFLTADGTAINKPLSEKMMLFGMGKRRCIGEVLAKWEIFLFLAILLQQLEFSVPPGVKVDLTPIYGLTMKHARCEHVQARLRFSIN
# Description: as §1
# [1] = Metabolic stability in liver microsomes; type: in vitro ADME, human; details: for half-life at 1 μM: Human liver microsomes, 1 μM compound, 0.5 mg/mL; for CLint scaled at 1 μM / microsomal CLint at 1 μM: human liver microsomes; for microsomal CLint at 1 μM: read-out: CLint(mic)
# Description: Experimental objective: to evaluate the metabolic stability of the test compound in CD-1 mice and human liver microsomes
# Experimental procedures: first, the test compound (10 mM) was subjected to a two-step dilution, where the compound was diluted to an intermediate concentration of 100 μM with 100% methanol, and the working solution was diluted to 10 μM with a potassium phosphate buffer; eight 96-well incubation plates were prepared, and named T0, T5, T10, T20, T30, T60, Blank and NCF60, respectively; the reaction time points corresponding to the first 6 incubation plates were 0, 5, 10, 20, 30 and 60 min, respectively; for the Blank plate, neither the test compound nor a control compound was added, and for the NCF60 plate, potassium phosphate buffer was used in an incubation of 60 min in place of a NADPH regeneration system solution; 10 μL of the test compound working solution and 80 μL of the microsome working solution (liver microsome protein concentration was 0.625 mg/mL) were added to the T0, T5, T10, T20, T30, T60 and NCF60 plates, while only the microsome working solution was added to the Blank plate, and all the incubation plates were then placed in a 37° C. water bath for pre-incubation for about 10 min; after the pre-incubation, 10 μL of a NADPH regeneration system working solution was added into each sample well of all the plates except the NCF60 plate and T0 plate to start the reaction, and 10 μL of potassium phosphate buffer was added to each well of the NCF60 plate; therefore, in the test compound or control compound samples, the final reaction concentrations of the compound, testosterone, diclofenac and propafenone were 1 μM, the concentration of the liver microsomes was 0.5 mg/mL, and the final concentrations of DMSO and acetonitrile in the reaction system were 0.01% (v/v) and 0.99% (v/v), respectively; after incubation for an appropriate time (such as 5, 10, 20, 30, and 60 min), 300 μL of a stop solution (acetonitrile solution containing 100 ng/mL tolbutamide and 100 ng/mL labetalol) was added to each sample well to stop the reaction; 300 μL of the stop solution and then 10 μL of the NADPH working solution were added to the T0 plate, all the sample plates were shaken and centrifuged in a centrifuge (3220×g) for 20 min, and then 100 μL of supernatant was taken from each well and diluted with 300 μL of pure water for liquid chromatography-tandem mass spectrometry analysis.
# T1 sequence (P11712 whole entry): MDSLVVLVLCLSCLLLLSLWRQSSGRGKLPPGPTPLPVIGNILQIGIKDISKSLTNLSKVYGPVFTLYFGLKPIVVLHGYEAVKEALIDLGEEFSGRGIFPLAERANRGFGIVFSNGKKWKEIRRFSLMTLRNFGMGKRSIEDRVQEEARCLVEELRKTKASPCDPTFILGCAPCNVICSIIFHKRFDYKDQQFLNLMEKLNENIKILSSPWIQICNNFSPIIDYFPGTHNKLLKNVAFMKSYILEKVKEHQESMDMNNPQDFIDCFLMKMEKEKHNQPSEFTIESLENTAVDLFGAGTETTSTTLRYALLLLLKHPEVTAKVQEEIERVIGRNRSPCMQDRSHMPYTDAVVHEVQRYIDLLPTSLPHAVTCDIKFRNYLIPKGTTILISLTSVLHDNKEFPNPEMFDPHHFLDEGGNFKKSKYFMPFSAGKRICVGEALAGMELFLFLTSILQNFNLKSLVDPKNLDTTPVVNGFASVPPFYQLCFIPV
# T3 sequence (P08684 whole entry): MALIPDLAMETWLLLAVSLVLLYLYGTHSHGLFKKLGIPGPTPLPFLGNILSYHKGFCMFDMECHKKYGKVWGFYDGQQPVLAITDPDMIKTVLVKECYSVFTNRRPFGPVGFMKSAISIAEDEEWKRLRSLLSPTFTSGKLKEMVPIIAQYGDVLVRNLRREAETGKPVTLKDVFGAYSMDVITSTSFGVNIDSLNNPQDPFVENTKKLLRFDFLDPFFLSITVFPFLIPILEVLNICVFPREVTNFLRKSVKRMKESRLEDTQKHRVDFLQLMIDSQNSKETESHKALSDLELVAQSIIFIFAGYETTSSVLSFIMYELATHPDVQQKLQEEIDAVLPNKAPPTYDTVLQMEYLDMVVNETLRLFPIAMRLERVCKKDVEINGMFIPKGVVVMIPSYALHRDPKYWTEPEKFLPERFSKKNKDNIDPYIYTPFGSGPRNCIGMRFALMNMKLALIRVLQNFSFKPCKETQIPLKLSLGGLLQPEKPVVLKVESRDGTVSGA
# T2 sequence (P33261 whole entry): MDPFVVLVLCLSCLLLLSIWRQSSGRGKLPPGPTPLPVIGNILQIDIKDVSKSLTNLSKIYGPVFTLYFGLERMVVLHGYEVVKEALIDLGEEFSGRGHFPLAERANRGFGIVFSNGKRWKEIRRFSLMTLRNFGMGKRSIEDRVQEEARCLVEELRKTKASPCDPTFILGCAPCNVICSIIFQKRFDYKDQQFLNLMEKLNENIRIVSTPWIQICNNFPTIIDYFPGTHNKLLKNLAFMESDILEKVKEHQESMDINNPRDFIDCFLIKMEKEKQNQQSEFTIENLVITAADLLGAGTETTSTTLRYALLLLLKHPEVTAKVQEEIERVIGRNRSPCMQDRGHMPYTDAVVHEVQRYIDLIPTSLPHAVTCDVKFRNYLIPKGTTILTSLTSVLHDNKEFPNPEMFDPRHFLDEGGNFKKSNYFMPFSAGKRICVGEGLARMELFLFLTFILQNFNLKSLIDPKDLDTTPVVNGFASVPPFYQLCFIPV
# T4 sequence (P10635 whole entry): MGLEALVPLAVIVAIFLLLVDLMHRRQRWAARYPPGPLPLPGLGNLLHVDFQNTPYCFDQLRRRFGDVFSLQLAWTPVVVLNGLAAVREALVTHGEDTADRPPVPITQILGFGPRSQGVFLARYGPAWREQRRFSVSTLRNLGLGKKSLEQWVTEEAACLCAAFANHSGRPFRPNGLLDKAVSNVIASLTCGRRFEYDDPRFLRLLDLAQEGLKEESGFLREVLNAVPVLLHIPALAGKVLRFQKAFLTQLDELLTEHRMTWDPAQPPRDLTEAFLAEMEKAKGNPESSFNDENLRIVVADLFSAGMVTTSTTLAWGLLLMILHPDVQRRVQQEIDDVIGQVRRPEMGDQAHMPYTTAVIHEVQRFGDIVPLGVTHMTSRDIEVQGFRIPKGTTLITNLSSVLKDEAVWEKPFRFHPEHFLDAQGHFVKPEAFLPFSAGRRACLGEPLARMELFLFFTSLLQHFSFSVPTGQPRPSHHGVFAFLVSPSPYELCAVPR
SMILES,IC50 (CYP2C9) [µM],IC50 (CYP2C19) [µM],IC50 (CYP3A4) [µM],IC50 (CYP2D6) [µM],IC50 (CYP1A2) [µM],half-life at 1 μM [1] [h],CLint scaled at 1 μM [1] [mL/min/kg],microsomal CLint at 1 μM [1] [µL/min/mg]
C[C@]1(NC(=O)C(=O)c2c(Cl)c(C(=O)Nc3ccc(F)c(F)c3)c3n2CCC3)CC[C@H](CC(=O)O)CC1 [Compound 18],> 50,> 50,> 50,> 50,> 50,> 2.42,< 8.6,< 9.6
C[C@]1(NC(=O)C(=O)c2c(Cl)c(C(=O)Nc3cc(F)c(F)c(F)c3)c3n2CCC3)CC[C@H](CC(=O)O)CC1 [Compound 25],> 50,> 50,> 50,> 50,> 50,> 2.42,< 8.6,< 9.6

# Reference: patent US20220204510A1, “2,3-DIHYDRO-1H-PYRROLIZINE-7-FORMAMIDE DERIVATIVE AND APPLICATION THEREOF” (CHIA TAI TIANQING PHARMACEUTICAL GROUP CO., LTD., priority 2018, published 2022)
